Assay: NZW rabbit keratitis model, clinical evaluation (Total Ocular Score)
Description: Fifteen rabbits were received from Myrtles' Rabbitry, Thompson Station, TN. The clinical isolate of fluoroquinolone-resistant, methicillin-resistant (MRSA) Staphylococcus aureus (K950) was subcultured on 5% sheep blood agar and incubated at 37° C. in 6% CO2 overnight. The next morning, the MRSA strain was suspended in sterile trypticase soy broth to a 0.5 McFarland Standard, containing approximately 5×10^8 cfu/ml of bacteria. The absorbance of the suspension was measured at 650 nm using a Beckman DU-70 spectrophotometer. OD readings of 0.07 corresponded to 5×10^8 cfu/ml of bacteria. This concentration was appropriately diluted in sterile trypticase soy broth to provide the inoculum of approximately 1,000 (1.0×10^3) cfu/eye in 25 μl. Colony counts were performed on the inoculum to determine the actual cfu inoculated. Following general anesthesia with ketamine and xylazine and topical anesthesia with proparacaine and prior to bacterial inoculation in the left eyes, 6 mm areas of the corneal epithelia was removed centrally with an Amoils epithelial scrubber. Nothing was done to the right eyes. The 15 rabbits were then inoculated intrastromally in both eyes with 25 μl of the bacterial dilution of approximately 10^3 cfu/eye of the bacteria. The bacterial inoculation of the left eyes was directly under the epithelial defect created by the Amoils epithelial scrubber. The epithelia were removed in the left corneas in order to determine whether this layer of the cornea is a barrier for Oligomer 2 penetration when compared to the right cornea with an intact epithelium. A colony count was done on the inoculum to determine the actual cfu inoculated. The rabbits were immediately treated with analgesia in the form of and intramuscular injection of ketoprofen, 1.5 mg/kg. After 4 hours, the 15 rabbits were divided into 4 treatment groups and one untreated control group sacrificed at the onset of therapy. Both eyes of each rabbit of the treatment groups were treated with one 37 μl drop of the coded solutions or control Saline or 1 drop of vancomycin from its dropper bottle. The Oligomer 2 concentrations were masked and labeled as 1 and 2. The masked concentrations were 1% Oligomer 2 and 0.5% Oligomer 2 but the specific concentrations of solutions were not known to the lab workers who carried out the experiment. The vancomycin and control (Tris-Buffered Saline) were not masked.
Treatment was scheduled for every 15 minutes for 5 hours (21 total doses). However, PMX-1 and PMX-2 were exhausted after the 19th dose. Therefore, the actual treatment was 15 minutes for 4.5 hours (19 total doses). The 3 rabbits in group V were sacrificed 4 hours PI and large 9.5 mm buttons were removed from the corneas. These were placed in 1 ml of PBS and kept on ice. The corneal buttons were homogenized for 25 seconds on ice using the motorized homogenizer. After homogenization, colony counts were done on the homogenates using 5% sheep blood agar plates to determine the amount of bacteria contained in the corneas at the onset of therapy. Following the completion of therapy, the eyes were examined for clinical signs of infection. One hour after the final treatment, the treated rabbits (Groups I-IV) were sacrificed and large 9.5 mm buttons were removed from the corneas. These were placed in 1 ml of PBS and kept on ice. The corneal buttons were homogenized for 25 seconds on ice using the motorized homogenizer. After homogenization, colony counts were performed on the homogenates using 5% sheep blood agar plates to determine the amount of bacteria contained in the corneas after treatment. The next morning, the plates were counted and the number of cfu/eye of Staphylococcus aureus was determined for each cornea.
Fifteen rabbits were received from Myrtles' Rabbitry, Thompson Station, TN.

| Effect of removal of the epithelium on Total Ocular Scores (Ker-1, 1% and 0.5% Oligomer 2, compared with intact epithelia) | Structure (SMILES) | Toxicity (Total Ocular Scores) compared with Saline treated eyes (rabbit, in vivo) |
| --- | --- | --- |
| – | CC(C)=CCCC(C)=CCCC(C)=CCO [Farnesol] | did not induce statistically greater toxicity |
| increased the Total Ocular Scores | N=C(N)NCCCCC(=O)Nc1cc(C(F)(F)F)cc(NC(=O)c2cc(C(=O)Nc3cc(C(F)(F)F)cc(NC(=O)CCCCNC(=N)N)c3SCCN)ncn2)c1SCCN [Oligomer 2] | – |

Source: patent publication US20130065818A1, “Arylamide Compounds And Compositions And Uses Thereof” (POLYMEDIX, priority 2006, published 2013)
